Target: T1, human plasma protein factor Xa (Homo sapiens, UniProt P00742)
T1 construct: measure proteolytic activity of the enzyme (factor Xa); purchased Haematologic Technologies (Essex Junction, Vt.); host or cells: human plasma
Experiment: Factor Xa IC50 determination (cleavage of chromogenic substrate S-2765)
Type: biochemical
Conditions: fXa 1 nM, S-2765 100 μM, Tris buffered saline pH 7.4, room temperature
From the text: This example illustrates methods for evaluating the compounds of the invention, along with results obtained for such assays. The in vitro and in vivo Factor Xa isoform activities of the inventive compounds can be determined by various procedures known in the art, such as a test for their ability to inhibit the activity of the Factor Xa isoform. […] The IC50 value is the concentration (in nM) of the compound required to provide 50% inhibition of Factor Xa isoform.
An in vitro assay for detecting and measuring inhibition activity against Factor Xa is as follows:
• The substrate S-2765 (Z-D-Arg-Gly-Arg-pNA.HCl) was obtained from Diapharma (West Chester, Ohio). Enzyme: • The human plasma protein factor Xa was purchased from Haematologic Technologies (Essex Junction, Vt.). Methods
All assays, which are performed in 96-well microtiter plates, measure proteolytic activity of the enzyme (factor Xa) by following cleavage of paranitroanilide substrate. The assay buffer used for proteolytic assays was Tris buffered saline (20 mM Tris, 150 mM NaCl, 5 mM CaCl2, 0.1% Bovine serum albumin (BSA), 5% Dimethly Sulfoxide (DMSO) pH 7.4). In a 96-well microtiter plate, inhibitor was serially diluted to give a range of concentrations from 0.01 nM to 10 μM (final). Duplicate sets of wells were assayed and control wells without inhibitor were included. Enzyme was added to each well,(fXa concentration=1nM), the plate was shaken for 5 seconds and then incubated for 5 minutes at room temperature. S2765 was added (100 μM final) and the plate was shaken for 5 seconds (final liquid volume in each well was 200 μl). The degree of substrate hydrolysis was measured at 405 nm on a Thermomax plate reader (Molecular Devices, Sunnyvale, Calif.) for 2 minutes. The initial velocities (mOD/min), for each range of inhibitor concentrations, were fitted to a four parameter equation using Softmax data analysis software. The parameter C, derived from the resulting curve-fit, corresponded to the concentration for half maximal inhibition (IC50).

T1 sequence (P00742 235-488 limits assumed): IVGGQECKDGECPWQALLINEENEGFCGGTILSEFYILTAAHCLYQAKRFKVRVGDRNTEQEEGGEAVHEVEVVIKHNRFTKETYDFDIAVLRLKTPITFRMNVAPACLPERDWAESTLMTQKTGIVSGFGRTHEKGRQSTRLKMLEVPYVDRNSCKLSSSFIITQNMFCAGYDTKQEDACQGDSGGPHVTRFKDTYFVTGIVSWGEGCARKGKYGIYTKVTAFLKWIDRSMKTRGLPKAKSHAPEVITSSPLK
T1 sequence (P00742 41-179 partner limits assumed): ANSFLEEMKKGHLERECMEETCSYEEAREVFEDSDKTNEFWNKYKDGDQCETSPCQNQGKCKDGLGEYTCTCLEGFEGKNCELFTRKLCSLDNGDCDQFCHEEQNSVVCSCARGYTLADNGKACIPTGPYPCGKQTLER

SMILES	IC50
CN1CCN=C1c1ccc(NC(=O)[C@@H](CC(=O)O)NC(=O)Nc2ccc(Cl)cc2)cc1 [Example 62, (2R) N-[4-(1-methyl-4,5-dihydro-1H-imidazol-2-yl)phenyl]-2-carboxymethyl-2-(4-chlorophenylaminocarbonylamino)-acetamide]	100 to 500 nM
CN(C)C(=O)CC(NC(=O)Nc1ccc(Cl)cc1)C(=O)Nc1ccc(C2=NCCN2C)cc1 (centres unmarked) [Example 63, N-[4-(1-methyl-4,5-dihydro-1H-imidazol-2-yl)phenyl]-2-dimethylaminocarbonylmethyl-2-(4-chlorophenylaminocarbonylamino)-acetamide]	≥ 500 nM
CN1CCN=C1c1ccc(NC(=O)C(CC(=O)N2CCCCC2)NC(=O)Nc2ccc(Cl)cc2)cc1 (centres unmarked) [Example 64, N-[4-(1-methyl-4,5-dihydro-1H-imidazol-2-yl)phenyl]-2-(piperidin-1-ylcarbonylmethyl)-2-(4-chlorophenylaminocarbonylamino)-acetamide]	≥ 500 nM
CN1CCN=C1c1ccc(NC(=O)C(CC(=O)N2CCOCC2)NC(=O)Nc2ccc(Cl)cc2)cc1 (centres unmarked) [Example 65, N-[4-(1-methyl-4,5-dihydro-1H-imidazol-2-yl)phenyl]-2-(morpholin-4-ylcarbonylmethyl)-2-(4-chlorophenylaminocarbonylamino)-acetamide]	≥ 500 nM
CN1CCN=C1c1ccc(NC(=O)C(CC(=O)N2CCCC2)NC(=O)Nc2ccc(Cl)cc2)cc1 (centres unmarked) [Example 66, N-[4-(1-methyl-4,5-dihydro-1H-imidazol-2-yl)phenyl]-2-(pyrrolidin-1-yl-carbonylmethyl)-2-(4-chlorophenylaminocarbonylamino)-acetamide]	≥ 500 nM
CCOC(=O)C1CCN(C(=O)CC(NC(=O)Nc2ccc(Cl)cc2)C(=O)Nc2ccc(C3=NCCN3C)cc2)CC1 (centres unmarked) [Example 67]	≥ 500 nM
CN1CCN=C1c1ccc(NC(=O)C(CC(=O)N2CCCCCC2)NC(=O)Nc2ccc(Cl)cc2)cc1 (centres unmarked) [Example 68, N-[4-(1-methyl-4,5-dihydro-1H-imidazol-2-yl)phenyl]-2-(homopiperidin-1-ylcarbonylmethyl)-2-(4-chlorophenylaminocarbonylamino)-acetamide]	≥ 500 nM
CN1CCN=C1c1ccc(NC(=O)C(CC(=O)NCc2ccccc2)NC(=O)Nc2ccc(Cl)cc2)cc1 (centres unmarked) [Example 69, N-[4-(1-methyl-4,5-dihydro-1H-imidazol-2-yl)phenyl]-2-(benzylamino-carbonylmethyl)-2-(4-chlorophenylaminocarbonylamino)-acetamide]	≥ 500 nM
CNC(=O)CC(NC(=O)Nc1ccc(Cl)cc1)C(=O)Nc1ccc(C2=NCCN2C)cc1 (centres unmarked) [Example 70, N-[4-(1-methyl-4,5-dihydro-1H-imidazol-2-yl)phenyl]-2-(methylamino-carbonylmethyl)-2-(4-chlorophenylaminocarbonylamino)-acetamide]	100 to 500 nM
CN1CCN=C1c1ccc(NC(=O)C(CC(N)=O)NC(=O)Nc2ccc(Cl)cc2)cc1 (centres unmarked) [Example 71, N-[4-(1-methyl-4,5-dihydro-1H-imidazol-2-yl)phenyl]-2-(aminocarbonylmethyl)-2-(4-chlorophenylaminocarbonylamino)-acetamide]	≥ 500 nM
CN1CCN=C1c1ccc(N2C(=O)CC(NC(=O)Nc3ccc(Cl)cc3)C2=O)cc1 (centres unmarked) [Example 72, N-[4-(1-methyl-4,5-dihydro-1H-imidazol-2-yl)phenyl]-3-(4-chlorophenylaminocarbonylamino)-succinimide]	100 to 500 nM
CN1CCN=C1c1ccc(NC(=O)C(CC(=O)Nc2ccccc2)NC(=O)Nc2ccc(Cl)cc2)cc1 (centres unmarked) [Example 73, N-[4-(1-methyl-4,5-dihydro-1H-imidazol-2-yl)phenyl]-2-(phenylamino-carbonylmethyl)-2-(4-chlorophenylaminocarbonylamino)-acetamide]	100 to 500 nM
CN1CCN=C1c1ccc(NC(=O)C(NC(=O)Nc2ccc(Cl)cc2)c2cccc(Cl)c2)cc1 (centres unmarked) [Example 74, N-[4-(1-methyl-4,5-dihydro-1H-imidazol-2-yl)phenyl]-2-(3-chlorophenyl)-2-(4-chlorophenylaminocarbonylamino)-acetamide]	≤ 100 nM
CN1CCN=C1c1ccc(NC(=O)C(NC(=O)Nc2ccc(Cl)cc2)c2ccccc2Cl)cc1 (centres unmarked) [Example 75, N-[4-(1-methyl-4,5-dihydro-1H-imidazol-2-yl)phenyl]-2-(2-chlorophenyl)-2-(4-chlorophenylaminocarbonylamino)-acetamide]	≤ 100 nM
CN1CCN=C1c1ccc(NC(=O)C(NC(=O)Nc2ccc(Cl)cc2)c2ccc3c(c2)OCO3)cc1 (centres unmarked) [Example 76, N-[4-(1-methyl-4,5-dihydro-1H-imidazol-2-yl)phenyl]-2-(benzo-1,3-dioxl-5-yl)-2-(4-chlorophenylaminocarbonylamino)-acetamide]	≤ 100 nM
CN1CCN=C1c1ccc(NC(=O)C(NC(=O)Nc2ccc(Cl)cc2)c2ccccc2Br)cc1 (centres unmarked) [Example 77, N-[4-(1-methyl-4,5-dihydro-1H-imidazol-2-yl)phenyl]-2-(2-bromophenyl)-2-(4-chlorophenylaminocarbonylamino)-acetamide]	≤ 100 nM
O=C(Nc1ccc(Cl)cc1)NC(C(=O)Nc1ccc(-c2cc[n+]([O-])cc2)cc1)c1ccccc1Br (centres unmarked) [Example 78, N-[4-(N-oxo-pyridin-4-yl)phenyl]-2-(2-bromophenyl)-2-(4-chlorophenylaminocarbonylamino)-acetamide]	100 to 500 nM
O=C(Nc1ccc(Cl)cc1)NC(C(=O)Nc1ccc(-c2cccc[n+]2[O-])cc1)c1ccccc1Br (centres unmarked) [Example 79, N-[4-(N-oxo-pyridin-2-yl)phenyl]-2-(2-bromophenyl)-2-(4-chlorophenylaminocarbonylamino)-acetamide]	≤ 100 nM
CN(C)C(=N)c1ccc(NC(=O)C(NC(=O)Nc2ccc(Cl)cc2)c2ccccc2Br)cc1 (centres unmarked) [Example 80, N-[4-(dimethylaminoimino)phenyl]-2-(2-bromophenyl)-2-(4-chlorophenylaminocarbonylamino)-acetamide]	≤ 100 nM

Next, values leading:

IC50	SMILES
≤ 100 nM	N=C(c1ccc(NC(=O)C(NC(=O)Nc2ccc(Cl)cc2)c2ccccc2Br)cc1)N1CCCC1 (centres unmarked) [Example 81]
≥ 500 nM	CC(C)N1CCC(NC(=O)C(NC(=O)Nc2ccc(Cl)cc2)c2ccccc2Br)CC1 (centres unmarked) [Example 82, N-(1-isopropylpiperidin-4-yl)-2-(2-bromophenyl)-2-(4-chlorophenylamino-carbonylamino)-acetamide]
≤ 100 nM	CN1CCC(N2CCN(C(=O)C(NC(=O)Nc3ccc(Cl)cc3)c3ccccc3Br)CC2)CC1 (centres unmarked) [Example 83]
≤ 100 nM	Cc1ccccc1C(NC(=O)Nc1ccc(Cl)cc1)C(=O)Nc1ccc(C2=NCCN2C)cc1 (centres unmarked) [Example 84, N-[4-(1-methyl-4,5-dihydro-1H-imidazol-2-yl)phenyl]-2-(2-methylphenyl)-2-(4-chlorophenylaminocarbonylamino)-acetamide]
≤ 100 nM	Cc1ccccc1C(NC(=O)Nc1ccc(Cl)cc1)C(=O)Nc1ccc(-n2ccnc2CN(C)C)cc1F (centres unmarked) [Example 85, N-[4-(2-dimethylaminomethyl-imidazol-1-yl)-2-fluorophenyl]-2-(2-methylphenyl)-2-(4-chlorophenylaminocarbonylamino)-acetamide]
≤ 100 nM	Cc1ccccc1C(NC(=O)Nc1ccc(Cl)cc1)C(=O)Nc1ccc(C(=N)N(C)C)cc1 (centres unmarked) [Example 86]
≤ 100 nM	Cc1ccccc1C(NC(=O)Nc1ccc(Cl)cc1)C(=O)Nc1ccc(C(=N)N2CCCC2)cc1 (centres unmarked) [Example 87]
≤ 100 nM	Cc1ccccc1C(NC(=O)Nc1ccc(Cl)cc1)C(=O)Nc1ccc(-c2cccc[n+]2[O-])cc1 (centres unmarked) [Example 88, N-[4-(N-oxo-pyridin-2-yl)phenyl]-2-(2-methylphenyl)-2-(4-chlorophenylaminocarbonylamino)-acetamide]
≤ 100 nM	Cc1ccccc1C(NC(=O)Nc1ccc(Cl)cc1)C(=O)Nc1ccc(-c2ccccc2CN(C)C)cc1 (centres unmarked) [Example 89, N-[4-(2-dimethylaminomethyl-phenyl)phenyl]-2-(2-methylphenyl)-2-(4-chlorophenylaminocarbonylamino)-acetamide]
≥ 500 nM	Cc1ccccc1C(NC(=O)Nc1ccc(Cl)cc1)C(=O)NC1CCN(C(C)C)CC1 (centres unmarked) [Example 90, N-(1-isopropylpiperidin-4-yl)-2-(2-methylphenyl)-2-(4-chlorophenylamino-carbonylamino)-acetamide]
≤ 100 nM	Cc1ccccc1C(NC(=O)Nc1ccc(Cl)cc1)C(=O)N1CCN(C2CCN(C)CC2)CC1 (centres unmarked) [Example 91]
≤ 100 nM	Cc1ccccc1C(NC(=O)Nc1ccc(Cl)cc1)C(=O)Nc1ccc(N2CCCN(C)CC2)cc1 (centres unmarked) [Example 92, N-[4-(4-methyl-homopiperazinyl)phenyl]-2-(2-methylphenyl)-2-(4-chlorophenylaminocarbonylamino)-acetamide]
≤ 100 nM	Cc1ccccc1C(NC(=O)Nc1ccc(Cl)cc1)C(=O)NCC1CCN(c2ccncc2)CC1 (centres unmarked) [Example 93, N-[1-(pyridin-4-yl)piperidin-4-yl]methyl-2-(2-methylphenyl)-2-(4-chlorophenylaminocarbonylamino)-acetamide]
